In data set [1] the target is T1, MCT8 (Rattus norvegicus, UniProt Q8K1P8).
T1 construct: the stop codon of MCT8 was removed by performing PCR using the same sense primer as above; expressed in transfected cells; host or cells: Xenopus laevis oocytes injected with cRNA transcribed from pGEM-HeJuel
Kind of data set: Inhibition of uptake of labeled T4 and T3 in MCT8 cRNA-injected oocytes by putative competitors. It is filed as cell-based. To be noted: labeled T3 10 nm, MCT8 cRNA-injected oocytes. The protocol: (§1) Oocytes were isolated and allowed to recover overnight at 18 C in modified Barth's solution containing 20 IU/ml penicillin and 20 gg/ml streptomycin as described before (23). […] Uninjected or water injected oocytes were used as controls.
(§2) Transport measurements in oocytes—Oocytes were washed and preincubated at 18 C in standard uptake solution (100 mM NaCl, 2 mM KCl, 1 mM CaCl2, 1 mM MgCl2, 10 mM HEPES, and 10 mM Tris, pH 7.5). […] The possible Na^+ dependence of transport was tested by preincubation and incubation in Na^+-free uptake solution in which NaCl was replaced by choline chloride. The influence of the temperature on the uptake rate was tested by the incubation of oocytes with uptake solutions at different temperatures between 4 and 37 C. […] The incubation was stopped by aspiration of the medium, and oocytes were washed 4 times at 4 C with standard uptake solution containing 0.1% BSA.

For data set [2], the target named is T2, rat oatp1 (Rattus norvegicus, UniProt P46720).
T2 sequence (P46720 1-670): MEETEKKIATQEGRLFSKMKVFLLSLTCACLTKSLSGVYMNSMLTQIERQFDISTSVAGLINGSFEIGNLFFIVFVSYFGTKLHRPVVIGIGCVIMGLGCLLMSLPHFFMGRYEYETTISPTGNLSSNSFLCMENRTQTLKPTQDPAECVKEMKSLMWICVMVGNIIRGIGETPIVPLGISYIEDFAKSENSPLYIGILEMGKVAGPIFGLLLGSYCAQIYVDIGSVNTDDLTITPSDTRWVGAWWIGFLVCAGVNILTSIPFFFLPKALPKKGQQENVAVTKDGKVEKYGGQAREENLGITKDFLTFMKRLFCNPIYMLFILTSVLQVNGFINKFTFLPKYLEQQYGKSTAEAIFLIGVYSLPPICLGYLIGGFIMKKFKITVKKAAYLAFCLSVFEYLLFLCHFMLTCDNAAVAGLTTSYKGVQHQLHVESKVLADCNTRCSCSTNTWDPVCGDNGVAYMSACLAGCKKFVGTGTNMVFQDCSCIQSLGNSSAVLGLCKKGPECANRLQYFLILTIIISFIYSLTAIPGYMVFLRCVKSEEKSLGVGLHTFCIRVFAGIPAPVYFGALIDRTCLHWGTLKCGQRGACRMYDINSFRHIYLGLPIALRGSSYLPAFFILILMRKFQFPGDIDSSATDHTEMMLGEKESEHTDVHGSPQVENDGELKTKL
To be noted: literature (10); read-out: Apparent Km values for rat oatp1; cited from earlier work.

The target in data set [3] is T3, MCT8 (Rattus norvegicus, UniProt Q8K1P8, G227D/I169T/S199P/T171I). The experiment in a line: Inhibition of uptake of labeled T4 and T3 in MCT8 cRNA-injected oocytes by putative competitors. Also on record: the stop codon of MCT8 was removed by performing PCR using the same sense primer as above; expressed in transfected cells; host or cells: Xenopus laevis oocytes injected with cRNA transcribed from pGEM-HeJuel. It is filed as cell-based. To be noted: for Inhibition of labeled T4 and T3 uptake by MCT8 (in words): unlabeled competitor, taurocholate and probenecid data not shown. On the procedure:
as §1, §2

Data set [4] concerns the target T3, MCT8. Kind of data set: Transport (uptake) of radioactive ligands by MCT8 expressed in X. laevis oocytes. In kind it is cell-based. More on the design: the stop codon of MCT8 was removed by performing PCR using the same sense primer as above; expressed in transfected cells; host or cells: Xenopus laevis oocytes injected with cRNA transcribed from pGEM-HeJuel. The settings on record: 10 nM iodothyronines or amino acids; MCT8 cRNA-injected vs uninjected oocytes. On the procedure:
Xenopus oocytes were isolated and injected with 4.6 ng rat MCTS cRNA. After 3 days, groups of 10 injected or uninjected oocytes were incubated for 60 mm at 25 C with 10 nM radioactive iodothyronines in 0.1 ml medium. Uptake of iodothyronines was determined as previously described (18).
as §1
Transport measurements in oocytes—Oocytes were washed and preincubated at 18 C in standard uptake solution (100 mM NaCl, 2 mM KCl, 1 mM CaCl2, 1 mM MgCl2, 10 mM HEPES, and 10 mM Tris, pH 7.5). Usually, transport was tested by incubation of groups of 5-10 oocytes for 2-60 mm at 25 C with 10 nM [1251]iodothyronines or 10 μM [3H]amino acids in 0.1 ml standard uptake solution. The possible Na^+ dependence of transport was tested by preincubation and incubation in Na^+-free uptake solution in which NaCl was replaced by choline chloride. The influence of the temperature on the uptake rate was tested by the incubation of oocytes with uptake solutions at different temperatures between 4 and 37 C. […] The incubation was stopped by aspiration of the medium, and oocytes were washed 4 times at 4 C with standard uptake solution containing 0.1% BSA.

Data set [5] concerns the target T4, rat MCT1 (Rattus norvegicus, UniProt P53987).
T4 sequence (P53987 1-494): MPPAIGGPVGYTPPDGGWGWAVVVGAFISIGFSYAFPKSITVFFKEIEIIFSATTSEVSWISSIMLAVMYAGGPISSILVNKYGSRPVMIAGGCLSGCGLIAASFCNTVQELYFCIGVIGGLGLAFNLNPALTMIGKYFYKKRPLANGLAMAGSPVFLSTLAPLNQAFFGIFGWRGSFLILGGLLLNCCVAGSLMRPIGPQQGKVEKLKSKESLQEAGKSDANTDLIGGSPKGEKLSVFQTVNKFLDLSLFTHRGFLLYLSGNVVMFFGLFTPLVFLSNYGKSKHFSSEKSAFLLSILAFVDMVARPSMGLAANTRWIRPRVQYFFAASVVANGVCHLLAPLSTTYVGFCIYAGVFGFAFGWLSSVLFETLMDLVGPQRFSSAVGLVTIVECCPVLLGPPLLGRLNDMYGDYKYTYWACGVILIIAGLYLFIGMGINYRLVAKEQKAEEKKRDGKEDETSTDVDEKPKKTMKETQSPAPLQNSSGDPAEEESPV
To be noted: data not shown.

Data set [6] concerns the target T3, MCT8. The experiment in a line: Transport kinetics of MCT8-mediated iodothyronine uptake in oocytes (Michaelis-Menten). More on the design: dose or concentration left out as unconfirmed. To be noted: net transport. The protocol: Apparent Km values were calculated by fitting the plot of uptake rate (v) versus ligand concentration (5) to the Michaelis Menten equation: v=Vmax/(1+Km/S), wherein Vmax is the maximum uptake rate, and Km the Michaelis constant. Calculations were performed using the Slide Write Plus program version 5.01 (Advanced Graphics Software).

Data set [7] concerns the target T3, MCT8. Kind of data set: Uptake and metabolism (sulfation) of rT3 in MCT8 cRNA-injected oocytes. It is filed as cell-based. Also on record: the stop codon of MCT8 was removed by performing PCR using the same sense primer as above; expressed in transfected cells; host or cells: Xenopus laevis oocytes injected with cRNA transcribed from pGEM-HeJuel. The settings on record: 10 nM rT3, 2-60 min, 25 C. The protocol:
Analysis of rT3 metabolism in oocytes—Groups of 10 oocytes were incubated for 2-60 mm at 25 C with 10 nM ['25IIrTa. After incubation, medium was collected, and 2 groups of 5 oocytes were counted separately and homogenized in 0.1 ml 0.1 M NaOH as described before (25). Lysates were cleared by centrifugation. Lysates (in duplicate) and incubation media were acidified with 0.1 M HCl and analyzed by Sephadex LH-20 chromatography (21). The different products were successively eluted with 0.1 M HCl (iodide), water (conjugates), and 1% NH4OH in ethanol (iodothyronines).
Metabolism of rT3—Previous studies have shown that X. laevis oocytes actively metabolize rT3 by sulfation. Since sulfotransferases are located intracellularly, we have used this property to investigate rT3 internalization by oocytes. […] At several time points, uninjected and MCT8 cRNA-injected oocytes are homogenized, and the homogenates and medium samples are analyzed for rT3 and rT3 sulfate (rT3S) content. It is shown that already after 2 mm of incubation, rT3S is formed intracellularly in the MCT8 cRNA-injected oocytes. After 10 mm of incubation, release of rT3S into the medium is observed. The production rate of rT3S is much higher in MCT8 cRNA-injected oocytes than in uninjected cells.

[8] abbreviates: labeled T4 10 nm, inhibitor 100 μM, MCT8 cRNA-injected oocytes.
[9] abbreviates: labeled T4 10 nm, inhibitor 10 μM, MCT8 cRNA-injected oocytes.

SMILES strings stand for the structures. Where two headings read alike, the source gives them in different places.

As a reminder, the Km is the concentration of substrate that gives half-maximal velocity. As a reminder, the inhibition is the relative decrease from the control value, in per cent.

T3 sequence (Q8K1P8 whole entry I169T/T171I/S199P/G227D): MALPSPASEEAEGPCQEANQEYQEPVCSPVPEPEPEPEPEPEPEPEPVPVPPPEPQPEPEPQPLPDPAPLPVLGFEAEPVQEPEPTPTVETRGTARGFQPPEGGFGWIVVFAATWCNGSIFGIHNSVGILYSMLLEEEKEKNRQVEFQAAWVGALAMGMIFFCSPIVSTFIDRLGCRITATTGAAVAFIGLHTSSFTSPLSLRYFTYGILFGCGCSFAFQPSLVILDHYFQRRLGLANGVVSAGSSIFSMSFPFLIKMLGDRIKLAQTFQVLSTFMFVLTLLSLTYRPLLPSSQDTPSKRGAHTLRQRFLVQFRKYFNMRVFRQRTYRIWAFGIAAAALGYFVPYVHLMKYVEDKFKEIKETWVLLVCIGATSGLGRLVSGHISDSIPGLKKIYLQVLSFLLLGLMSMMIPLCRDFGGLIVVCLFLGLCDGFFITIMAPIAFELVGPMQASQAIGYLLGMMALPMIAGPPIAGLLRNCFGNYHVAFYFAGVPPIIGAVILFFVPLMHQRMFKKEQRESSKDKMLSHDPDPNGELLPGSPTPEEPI
T1 sequence (Q8K1P8 whole entry I169T/T171I/S199P/G227D): as above

Take `O=C1OC(c2ccc(O)c(S(=O)(=O)O)c2)(c2ccc(O)c(S(=O)(=O)O)c2)c2c(Br)c(Br)c(Br)c(Br)c21` [BSP, bromosulfophthalein]: the “% inhibition ± SEM of uptake of T3” value in data set [1] (inhibitor 100 μM) is 81 ± 1%. In addition, the Km in data set [2] is 1.5 µM. For the same compound, the “% inhibition ± SEM of uptake of T4” value in data set [3] (setting [8]) is reported as 94 ± 2%. Also, the “Inhibition of labeled T4 and T3 uptake by MCT8 (in words)” value (“Inhibition of labeled T4 and T3 uptake” below) in data set [3] is reported as “potent inhibitor”.

With `O=C(CBr)N[C@@H](Cc1cc(I)c(Oc2ccc(O)c(I)c2)c(I)c1)C(=O)O` [BrAcT3, N-bromoacetyl-3,3′,5-triiodothyronine], the inhibition at 10 µM in data set [3] (labeled T4 10 nm, inhibitor 10 μM, MCT8 cRNA-injected oocytes, read-out: % inhibition ± SEM of uptake of T4) came out at 90 ± 3%; in data set [3] (read-out: % inhibition ± SEM of uptake of T3) it was 67 ± 1%. In data set [3], the “Inhibition of labeled T4 and T3 uptake” value is listed as “potently inhibited”.

For the compound `N[C@H](Cc1cc(I)c(Oc2ccc(O)c(I)c2)c(I)c1)C(=O)O` [D-T3], in data set [1] (inhibitor 10 μM), the “% inhibition ± SEM of uptake of T3” value is 24 ± 5%. Further, in data set [3] (setting [9]), the “% inhibition ± SEM of uptake of T4” value was 72 ± 3%. Further, in data set [3], the “Inhibition of labeled T4 and T3 uptake” value is “potently inhibited”.

For the compound `N[C@H](Cc1cc(I)c(Oc2cc(I)c(O)c(I)c2)c(I)c1)C(=O)O` [D-T4], the “% inhibition ± SEM of uptake of T3” value in data set [1] (inhibitor 10 μM) is given as 21 ± 5%. Also, in data set [3] (setting [9]), the “% inhibition ± SEM of uptake of T4” value turned out to be 76 ± 7%. In addition, the “Inhibition of labeled T4 and T3 uptake” value in data set [3] is reported as “potently inhibited”.

Take `CC(C)C[C@H](N)C(=O)O` [Leu]: in data set [4], the “Substrate specificity: transport by MCT8 (in words)” value (“Substrate specificity: transport” below) is listed as “not transported”.

For the compound `N[C@@H](Cc1ccccc1)C(=O)O` [Phe], the “Substrate specificity: transport” value in data set [4] was “not transported”.

On to `N[C@@H](Cc1ccc(Oc2ccc(O)c(I)c2)c(I)c1)C(=O)O` [T2, 3,3′-diiodothyronine], for which the “Substrate specificity: transport” value in data set [4] was “rapid uptake”.

Regarding `NS(=O)(=O)O` [T4NS], the “Substrate specificity: transport” value in data set [4] was “not transported”.

As to `N[C@@H](Cc1cc(I)c(Oc2cc(I)c(OS(=O)(=O)O)c(I)c2)c(I)c1)C(=O)O` [T4S], in data set [4], the “Substrate specificity: transport” value is given as “not transported”.

For `N[C@@H](Cc1c[nH]c2ccccc12)C(=O)O` [Trp], in data set [1] (inhibitor 100 μM), the “% inhibition ± SEM of uptake of T3” value is 0 ± 7%. Moreover, in data set [4], the “Substrate specificity: transport” value was “not transported”. Also, the “% inhibition ± SEM of uptake of T4” value in data set [3] (setting [8]) was 22 ± 6%. Moreover, the “Inhibition of labeled T4 and T3 uptake” value in data set [3] was “hardly affected”.

For `N[C@@H](Cc1ccc(O)cc1)C(=O)O` [Tyr], in data set [1] (inhibitor 100 μM), the “% inhibition ± SEM of uptake of T3” value was determined as 0 ± 9%. Further, the “Substrate specificity: transport” value in data set [4] is reported as “not transported”. Besides, the “% inhibition ± SEM of uptake of T4” value in data set [3] (setting [8]) is 37 ± 6%. In addition, the “Inhibition of labeled T4 and T3 uptake” value in data set [3] is “hardly affected”.

For the compound `CC(O)C(=O)O` (centres unmarked) [lactate], in data set [4], the “Substrate specificity: transport” value is on record as “unable to demonstrate any transport”. Also, in data set [5], the “Transport in rat MCT1 cRNA-injected oocytes compared to control oocytes (in words)” value was “greatly stimulated”.

On to `CCCN(CCC)S(=O)(=O)c1ccc(C(=O)O)cc1` [probenecid], for which, in data set [3], the “Inhibition of labeled T4 and T3 uptake” value is recorded as “weak effects”.

As to `N[C@@H](Cc1ccc(Oc2cc(I)c(O)c(I)c2)c(I)c1)C(=O)O` [rT3, 3,3′,5′-triiodothyronine], in data set [4], the “Substrate specificity: transport” value is “rapid uptake”. The “Saturability of transport by MCT8” value in data set [6] was “saturable”. Further, the “Production rate of rT3S in MCT8 cRNA-injected oocytes versus uninjected cells” value in data set [7] is recorded as “much higher”.
